Measured values: patent US8481724B2, “Synthesis of 2,4-pyrimidinediamines” (Rigel Pharmaceuticals, Inc., priority 2009, dated 2013)

Tests used:
[1] = cited from earlier work
[2] = water solubility in aqueous buffer under physiological conditions; format: physicochemical; conditions: prodrug versus parent compound of formula IV, same conditions

| solubility relative to compound of formula IV (times greater) [2] | Compound | solubility ([1]; aqueous buffer under physiological conditions (same conditions as formula IV)) | water solubility ([1]; aqueous buffer under physiological conditions) |
| --- | --- | --- | --- |
| approximately 2000 times | COc1cc(Nc2ncc(F)c(Nc3ccc4c(n3)N(COP(=O)(O)O)C(=O)C(C)(C)O4)n2)cc(OC)c1OC [compound of formula II] | greater than 5 mg/mL | – |
| – | COc1cc(Nc2ncc(F)c(Nc3ccc4c(n3)NC(=O)C(C)(C)O4)n2)cc(OC)c1OC [compound of formula IV] | – | 1 to 2 µg/mL |
